Data taken from ChEMBL document CHEMBL4673229, “Pancreatic Lipase Inhibitory Cyclohexapeptides from the Marine Sponge-Derived Fungus Aspergillus sp. 151304” (J Nat Prod, 2020).
Positions of bridges follow the written chain, without caps; N, C: chain ends. Non-standard residues stand in square brackets, D forms with d. Residues, ends and D or L forms follow the SMILES beside them. *: point of attachment. NMeY = CN[C@@H](Cc1ccc(O)cc1)C(=O)O; Propionyl = CCC(=O)*

What was measured:
[1] = Inhibition of porcine pancrease lipase type 2 assessed as decrease in 4-MU formation using 4-MUO as substrate preincubated for 3 mins followed by substrate addition and measured for 40 mins by fluorescence assay; parameters: species or system Sus scrofa domesticus, Pancreas
[2] = test system: HeLa; experiment: Cytotoxicity against human HeLa cells assessed as reduction in cell viability incubated for 72 hrs by CCK8 assay; type: cell-based
[3] = test system: MCF7; experiment: Cytotoxicity against human MCF7 cells assessed as reduction in cell viability incubated for 72 hrs by CCK8 assay; type: cell-based; details: MCF7, 72 h
[4] = test system: PC-9; experiment: Cytotoxicity against human PC-9 cells assessed as reduction in cell viability incubated for 72 hrs by CCK8 assay; type: cell-based; details: PC-9, 72 h
[5] = test system: HepG2; experiment: Cytotoxicity against human HepG2 cells assessed as reduction in cell viability incubated for 72 hrs by CCK8 assay; type: cell-based; details: HepG2, 72 h
[6] = Non-competitive inhibition of porcine pancrease lipase type 2 assessed as decrease in 4-MU formation using 4-MUO as substrate preincubated for 3 mins followed by substrate addition and measured for 40 mins by Lineweaver-Burk plot analysis; parameters: species or system Sus scrofa domesticus, Pancreas

Row | IC50 [1] [µM] | Ki [6] [µM] | Structure (SMILES) | IC50 [2] [µM] | IC50 [3] [µM] | IC50 [4] [µM] | IC50 [5] [µM]
1 | 1.8 |  | CCC(=O)N[C@@H]1C(=O)N[C@@H](C(C)C)C(=O)N2CCC[C@H]2C(=O)N[C@@H](C(C)C)C(=O)N(C)[C@@H](Cc2ccc(O)cc2)C(=O)N[C@@H](Cc2ccc(O)cc2)C(=O)O[C@@H]1C (Propionyl-TVPV[NMeY]Y; ester 1-C) | > 20 | > 20 | > 20 | > 20
2 | 7.6 |  | CC(=O)N[C@@H]1C(=O)N[C@@H](C(C)C)C(=O)N2CCC[C@H]2C(=O)N[C@@H](C(C)C)C(=O)N(C)[C@@H](Cc2ccc(O)cc2)C(=O)N[C@@H](Cc2ccc(O)cc2)C(=O)O[C@@H]1C (Ac-TVPV[NMeY]Y; ester 1-C) | > 20 | > 20 | > 20 | > 20
3 | 0.5 | 2 | CC(=O)N[C@@H]1C(=O)N[C@@H](C(C)C)C(=O)N2CCC[C@H]2C(=O)N[C@H](C(C)C)C(=O)N[C@@H](Cc2ccc(O)cc2)C(=O)N[C@@H](Cc2ccc(O)cc2)C(=O)O[C@@H]1C | > 20 | > 20 | > 20 | > 20
